Measurements reported in patent US12319703B2, “Macrocyclic fused pyrazoles as Mcl-1 inhibitors” (ASCENTAGE PHARMA (SUZHOU) CO., LTD., priority 2019, dated 2025).
≈ marks a conversion by molar mass, not a printed value.

Columns and labels:
[1] = from CCOC(=O)c1c(CCCOc2cc(S)cc3ccccc23)c2ccc(Cl)c(-c3c(CSCc4cc(CBr)n(C)n4)nn4c3CCC4)c2n1C; thioether bond; K2CO3; acetonitrile; 3.14 mM; 25.0 °C; 3.0 h; 6 steps
[2] = molecular target: T1, Mcl-1 protein (residues 171-323) (Homo sapiens, UniProt Q07820); experiment: Inhibition of Mcl-1 by fluorescence polarization (FP) competitive binding assay; conditions: FAM-Bid tracer 2 nM, Mcl-1 20 nM, 30 min
T1 construct: Tag-free Mcl-1 protein (residues 171-323) was used in the FP assay
Outline: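 FAM-Bid peptide (2 nM) was competed against Mcl-1 (20 nM) in PBS with 0.01% BGG and 0.01% Triton X-100 at 5% final DMSO. Anisotropy was read as mP over a 10-point dilution series. IC50 came from a sigmoidal dose-response nonlinear fit.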

Kinetic solubility assay = format: physicochemical; conditions: PBS buffer pH 6.5, aqueous buffer, thermodynamic from solid; pH 6.5 PBS buffer, HPLC; read-out: Solubility (pH 6.5, μg/mL)
Description: Representative Compounds of the Disclosure were tested in a solubility assay with pH 6.5 PBS buffer. PBS buffer was prepared by dissolving 4.86 g of potassium dihydrogen phosphate and 5.09 g of disodium hydrogen phosphate dodecahydrate in 1 L of ultrapure water to have final pH value of 6.5. In the solubility assay, 0.5 mg of test sample was dissolved in 1 mL of methanol and the stock solution was transferred into 2 mL EP tube, and evaporated at 50° C. for 3 h. To the tube was added 1 mL of PBS buffer and the mixture was stirred and shaken for 1-2 h. The solution was allowed to stand overnight and then filtered before HPLC analysis. Another 1.5 mg of the sample was dissolved in 3 mL of methanol to prepare a calibration curve with a series of concentration range of 5-500 μM. The solubility of each sample was determined by the measured peak area in HPLC.

NCI-H929 cells = experiment: Cell viability assay (NCI-H929 cells), CCK-8; format: cell-based; conditions: Homo sapiens, NCI-H929, 24 h, WST, 5% FBS
OPM-2 cells = experiment: Cell viability assay (OPM-2 cells), CCK-8; format: cell-based; conditions: Homo sapiens, OPM-2, 24 h, WST, 5% FBS, read-out: OPM2 (WST, 5% FBS)
Outline: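 OPM-2 cells from DSMZ were tested for viability with a Cell Counting Kit-8 (CCK-8) assay. Serially diluted compound (100 μL) was added to 96-well plates, then 100 μL of cell suspension (20000 cells/well) was added, and plates were incubated at 37° C. under 5% CO2 for 24 hours. After 20 μL CCK-8 solution and 4 hours of incubation, absorbance was read at 450 nm. Readings were normalized to vehicle and IC50 was fitted by nonlinear regression in GraphPad Prism 6.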

T1 sequence (Q07820 171-323): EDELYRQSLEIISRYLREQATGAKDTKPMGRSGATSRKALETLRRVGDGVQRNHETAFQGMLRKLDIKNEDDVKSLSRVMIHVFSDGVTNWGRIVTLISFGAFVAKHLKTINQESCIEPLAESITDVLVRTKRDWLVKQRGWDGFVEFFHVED

| SMILES | ring closure, yield of all isomers [1] [%] | IC50 [2] [nM] | solubility (Kinetic solubility assay) [µg/mL] | IC50 (NCI-H929 cells) [nM] | IC50 (OPM-2 cells) [nM] |
| --- | --- | --- | --- | --- | --- |
| Cn1nc2cc1CSc1cc(c3ccccc3c1)OCCCc1c(C(=O)O)n(C)c3c(c(Cl)ccc13)-c1c(nn3c1CCC3)CSC2 | 3 |  |  |  |  |
| Cn1nc2c(Cl)c1CSc1cc(c3ccccc3c1)OCCCc1c(C(=O)O)n(C)c3c(c(Cl)ccc13)-c1c(nn3c1CCCC3)CSC2 [compound 24, (E)-1^6,6^4-dichloro-1^1,6^1-dimethyl-2^4,2^5,2^6,2^7-tetrahydro-1^1H,6^1H-10-oxa-4,8-dithia-2(3,2)-pyrazolo[1,5-a]pyridina-1(7,3)-indola-6(3,5)-pyrazola-9(3,1)-naphthalenacyclotridecaphane-1^2-carboxylic acid] |  | 14.3 | < 1 | 1640 | 4860 |
| Cn1nc2cc1CSc1cc(c3ccc(F)cc3c1)OCCCc1c(C(=O)O)n(C)c3c(c(Cl)ccc13)-c1c(nn3c1CCCC3)CSC2 [compound 26, (Z)-1^6-chloro-96-fluoro-1^1,6^1-dimethyl-2^4,2^5,2^6,2^7-tetrahydro-1^1H,6^1H-10-oxa-4,8-dithia-2(3,2)-pyrazolo[1,5-a]pyridina-1(7,3)-indola-6(3,5)-pyrazola-9(3,1)-naphthalenacyclotridecaphane-1^2-carboxylic acid] |  | 30.9 | 1 (≈ 1.4 µM) | 44 | 133 |
| Cn1nc2cc1CSc1cc(c3ccc(F)cc3c1)OCCCc1c(C(=O)O)n(C)c3c(c(Cl)ccc13)-c1c(nn3c1CCC3)CSC2 [compound 27, (Z)-1^6-chloro-9^6-fluoro-1^1,6^1-dimethyl-2^5,2^6-dihydro-1^1H,2^4H,6^1H-10-oxa-4,8-dithia-1(7,3)-indola-2(3,2)-pyrrolo[1,2-b]pyrazola-6(3,5)-pyrazola-9(3,1)-naphthalenacyclotridecaphane-1^2-carboxylic acid] |  | 24.9 | 52 (≈ 74 µM) | 51 | 153 |
| Cc1cc2ccc1CSc1cc(c3ccc(F)cc3c1)OCCCc1c(C(=O)O)n(C)c3c(c(Cl)ccc13)-c1c(nn3c1CCC3)CSC2 [compound 30, 1^6-chloro-9^6-fluoro-1^1,6^3-dimethyl-2^5,2^6-dihydro-1^1H,2^4H-10-oxa-4,8-dithia-1(7,3)-indola-2(3,2)-pyrrolo[1,2-b]pyrazola-9(3,1)-naphthalena-6(1,4)-benzenacyclotridecaphane-1^2-carboxylic acid] |  | 14.2 | < 1 | 196 | 255 |
| Cc1c2c(nn1C)CN(S(C)(=O)=O)Cc1cc(n(C)n1)CSc1cc(c3ccccc3c1)OCCCc1c(C(=O)O)n(C)c3c-2c(Cl)ccc13 [compound 36, (Z)-1^6-chloro-1^1,2^1,2^5,6^1-tetramethyl-4-(methylsulfonyl)-1^1H,2^1H,6^1H-10-oxa-8-thia-4-aza-1(7,3)-indola-2(4,3),6(3,5)-dipyrazola-9(3,1)-naphthalenacyclotridecaphane-1^2-carboxylic acid] |  | 19 | 16 (≈ 21.8 µM) | 71 | 317 |
| Cc1oc2nc1CSc1cc(c3ccccc3c1)OCCCc1c(C(=O)O)n(C)c3c(c(Cl)ccc13)-c1c(nn3c1OCC3)CSC2 [compound 38, (Z)-1^6-chloro-1^1,6^5-dimethyl-2^2,2^3-dihydro-1^1H-10-oxa-4,8-dithia-2(7,6)-pyrazolo[5,1-b]oxazola-6(2,4)-oxazola-1(7,3)-indola-9(3,1)-naphthalenacyclotridecaphane-1^2-carboxylic acid] |  | 85 | 127 (≈ 185 µM) | 5990 | 5880 |
| Cn1nc2cc1CSc1cc(c3ccc(F)cc3c1)OCCCc1c(C(=O)O)n(C)c3c(c(Cl)ccc13)-c1c(nn3c1CCC3)CN(S(C)(=O)=O)C2 [compound 44, (Z)-1^6-chloro-9^6-fluoro-1^1,6^1-dimethyl-4-(methylsulfonyl)-2^5,2^6-dihydro-1^1H,2^4H,6^1H-10-oxa-8-thia-4-aza-1(7,3)-indola-2(3,2)-pyrrolo[1,2-b]pyrazola-6(3,5)-pyrazola-9(3,1)-naphthalenacyclotridecaphane-1^2-carboxylic acid] |  | 15 | > 400 | 156 | 506 |
| Cc1c2c(nn1C)CN(C1CC1)Cc1cc(n(C)n1)CSc1cc(c3ccccc3c1)OCCCc1c(C(=O)O)n(C)c3c-2c(Cl)ccc13 [compound 49, (Z)-1^6-chloro-4-cyclopropyl-1^1,2^1,2^5,6^1-tetramethyl-1^1H,2^1H,6^1H-10-oxa-8-thia-4-aza-1(7,3)-indola-2(4,3),6(3,5)-dipyrazola-9(3,1)-naphthalenacyclotridecaphane-1^2-carboxylic acid] |  | 21 | 28 (≈ 40.3 µM) | 55 | 167 |
